Experimental data reported in US20080287467A1, “Therapeutic Agent for Respiratory Diseases” (priority 2004, published 2008).
Like-named read-outs stand apart in the source and are kept apart here.

System: swine bronchial smooth muscle cells
Assay: Patch cramp (whole-cell) measurement of membrane current and membrane potential, ATP-induced inward current
Assay type: cell-based
Description: In the present specification, the patch cramp method is a method including allowing a glass micropipette (patch electrode) to attach tightly to cell membrane at a high resistance in giga-ohms (GΩ) or more and then measuring ion currents in conditions that a very small membrane region (patch membrane) on the top opening of the electrode is electrically isolated from other regions. In particular, the inventors measured and analyzed electric currents by the whole-cell mode including opening a hole by breaking the patch membrane to record ion current flowing through the whole cell membrane except the broken patch membrane.
Swine bronchial smooth muscle tissue was finely chopped and incubated at 37° C. for 40 minutes, using collagenase and papain, to isolate the cells.

## Nc1ncnc2c1ncn2[C@@H]1O[C@H](COP(=O)(O)OP(=O)(O)OP(=O)(O)O)[C@@H](O)[C@H]1O [ATP, adenosine-5′-triphosphate]
Electric current fixed, depolarized from −40 mV
  cellular membrane potential after depolarization due to ATP: −20 mV
Membrane potential maintained at −40 mV
  membrane current on ATP administration: inward current passed

## Cc1nc(N=Nc2ccc(S(=O)(=O)O)cc2S(=O)(=O)O)c(COP(=O)(O)O)c(C=O)c1O [PPADS, pyridoxal phosphate-6-azophenyl-2′,4′-disulfonic acid]
Concentration not given
  suppression of the ATP-induced inward current: No suppression

## COc1ccc(CCCOC(Cn2ccnc2)c2ccc(OC)cc2)cc1 (stereo not shown) [SKF 96365]
  suppression of the ATP-induced inward current: about 50%

## COc1ccc2c(c1)CC[C@@H]1[C@@H]2CC[C@]2(C)[C@@H](NCCCCCCN3C(=O)C=CC3=O)CC[C@@H]12 [U-73122]
Treatment with 100 μM, subsequent ATP dosing
  suppression of the ATP-induced inward current: no suppression

## Cc1ccc(C(=O)Nc2ccc(S(=O)(=O)O)c3cc(S(=O)(=O)O)cc(S(=O)(=O)O)c23)cc1NC(=O)c1cccc(NC(=O)Nc2cccc(C(=O)Nc3cc(C(=O)Nc4ccc(S(=O)(=O)O)c5cc(S(=O)(=O)O)cc(S(=O)(=O)O)c45)ccc3C)c2)c1 [suramin]
Concentration not given
  suppression of the ATP-induced inward current: No suppression

## ivermectin
FIG. 2
  enhancement of the ATP-induced inward current: 3.5 fold
